{"source": "patent EP2098223A1", "about": "“Compressed solid dosage form” (Teva Pharmaceutical Industries Ltd., priority 2004, dated 2006)", "assay": "Particle size distribution by laser light scattering (Malvern Mastersizer S)", "format": "physicochemical", "settings": "mean equivalent spherical diameter; raloxifene hydrochloride used in Formulations 1-4", "text": "For example, in Formulations 1-4 below, d(0.5) = 38.8 µm and d(0.9) = 90.4 µm. All particle sizes herein refer to the mean equivalent spherical diameter measured by laser light scattering techniques. Thus, the notation \"d(0.5) greater than about 35 µm\" means that 50% of the particles by volume have a mean equivalent spherical diameter of more than about 35 µm, as measured by laser light scattering. The laser light scattering measurement instrument used to measure the particle size distributions in the Examples was a Malvern Mastersizer® S. The dissolution profile was generated by testing in either 900 mL or 2 L of a 0.1 % aqueous polysorbate 80 solution, using paddle apparatus (USP Apparatus II) at 50 rpm at 37°C.", "note": "Where a name gives a salt, the structure may show the parent alone."}
{"compound": "O=C(c1ccc(OCCN2CCCCC2)cc1)c1c(-c2ccc(O)cc2)sc2cc(O)ccc12", "note": "[raloxifene hydrochloride]", "values": [{"measurement": "d(0.5)", "value": 38.8, "unit": "µm"}, {"measurement": "d(0.9)", "value": 90.4, "unit": "µm"}]}
